Active and inactive are the calls of the source. The rule behind the calls is not given here.
Experiments:
K562 = experiment: cells; settings: Homo sapiens, K562, 48 h
Description: Antiproliferative activity against human K562 cells assessed as inhibition of cell growth incubated for 2 days by CCK8 assay

[1] = molecular target: T1, Protein cereblon/Tyrosine-protein kinase ABL1/Breakpoint cluster region protein (Homo sapiens, UniProt P00519+P11274+Q96SW2); experiment: Protac activity at CRBN/BCR-ABL in human K562 cells assessed as increase in BCR-ABL degradation at 50 nM by Western blotting analysis; format: cell-based
[2] = molecular target: T1, Protein cereblon/Tyrosine-protein kinase ABL1/Breakpoint cluster region protein; experiment: Protac activity at CRBN/BCR-ABL in human K562 cells assessed as increase in BCR-ABL degradation at 5 nM by Western blotting analysis; format: cell-based
[3] = molecular target: T1, Protein cereblon/Tyrosine-protein kinase ABL1/Breakpoint cluster region protein; experiment: Protac activity at CRBN/BCR-ABL in human K562 cells assessed as increase in BCR-ABL degradation at 100 nM by Western blotting analysis; format: cell-based
[4] = molecular target: T2, Signal transducer and activator of transcription 5A (Homo sapiens) (UniProt P42229); experiment: Inhibition of STAT5 phosphorylation at Tyr694 residue in human K562 cells at 0.3 to 100 nM incubated for 16 hrs by Western blotting analysis; format: cell-based; settings: dose 0.3-100 nM
T2 sequence (whole entry): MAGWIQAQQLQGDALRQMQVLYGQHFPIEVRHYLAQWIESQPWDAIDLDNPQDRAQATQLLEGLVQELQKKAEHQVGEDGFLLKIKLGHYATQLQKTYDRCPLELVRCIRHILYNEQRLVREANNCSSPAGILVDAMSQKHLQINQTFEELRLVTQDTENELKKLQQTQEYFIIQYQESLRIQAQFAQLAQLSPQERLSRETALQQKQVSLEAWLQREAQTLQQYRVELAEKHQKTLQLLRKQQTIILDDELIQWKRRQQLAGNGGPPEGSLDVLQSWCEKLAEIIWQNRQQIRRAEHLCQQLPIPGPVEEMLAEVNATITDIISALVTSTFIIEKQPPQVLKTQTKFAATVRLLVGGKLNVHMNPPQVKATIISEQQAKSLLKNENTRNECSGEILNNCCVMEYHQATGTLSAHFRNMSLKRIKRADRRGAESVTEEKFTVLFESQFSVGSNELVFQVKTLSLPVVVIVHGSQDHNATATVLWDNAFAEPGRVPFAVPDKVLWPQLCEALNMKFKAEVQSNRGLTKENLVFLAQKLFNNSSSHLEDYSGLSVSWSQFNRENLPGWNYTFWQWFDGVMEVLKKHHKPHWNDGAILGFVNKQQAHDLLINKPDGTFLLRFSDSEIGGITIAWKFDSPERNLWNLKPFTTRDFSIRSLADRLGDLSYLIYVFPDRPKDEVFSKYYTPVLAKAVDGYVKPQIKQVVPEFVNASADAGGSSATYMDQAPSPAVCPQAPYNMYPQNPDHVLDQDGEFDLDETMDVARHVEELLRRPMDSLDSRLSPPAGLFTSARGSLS

[5] = molecular target: T3, Bcr/Abl fusion protein (Homo sapiens) (UniProt P00519+P11274); experiment: Inhibition of BCR-ABL phosphorylation at Tyr245 residue in human K562 cells at 100 nM incubated for 6 hrs followed by compound washout measured upto 96 hrs by Western blotting analysis; format: cell-based
T3 sequence (P00519 whole entry, looked up, the tested form may be a part): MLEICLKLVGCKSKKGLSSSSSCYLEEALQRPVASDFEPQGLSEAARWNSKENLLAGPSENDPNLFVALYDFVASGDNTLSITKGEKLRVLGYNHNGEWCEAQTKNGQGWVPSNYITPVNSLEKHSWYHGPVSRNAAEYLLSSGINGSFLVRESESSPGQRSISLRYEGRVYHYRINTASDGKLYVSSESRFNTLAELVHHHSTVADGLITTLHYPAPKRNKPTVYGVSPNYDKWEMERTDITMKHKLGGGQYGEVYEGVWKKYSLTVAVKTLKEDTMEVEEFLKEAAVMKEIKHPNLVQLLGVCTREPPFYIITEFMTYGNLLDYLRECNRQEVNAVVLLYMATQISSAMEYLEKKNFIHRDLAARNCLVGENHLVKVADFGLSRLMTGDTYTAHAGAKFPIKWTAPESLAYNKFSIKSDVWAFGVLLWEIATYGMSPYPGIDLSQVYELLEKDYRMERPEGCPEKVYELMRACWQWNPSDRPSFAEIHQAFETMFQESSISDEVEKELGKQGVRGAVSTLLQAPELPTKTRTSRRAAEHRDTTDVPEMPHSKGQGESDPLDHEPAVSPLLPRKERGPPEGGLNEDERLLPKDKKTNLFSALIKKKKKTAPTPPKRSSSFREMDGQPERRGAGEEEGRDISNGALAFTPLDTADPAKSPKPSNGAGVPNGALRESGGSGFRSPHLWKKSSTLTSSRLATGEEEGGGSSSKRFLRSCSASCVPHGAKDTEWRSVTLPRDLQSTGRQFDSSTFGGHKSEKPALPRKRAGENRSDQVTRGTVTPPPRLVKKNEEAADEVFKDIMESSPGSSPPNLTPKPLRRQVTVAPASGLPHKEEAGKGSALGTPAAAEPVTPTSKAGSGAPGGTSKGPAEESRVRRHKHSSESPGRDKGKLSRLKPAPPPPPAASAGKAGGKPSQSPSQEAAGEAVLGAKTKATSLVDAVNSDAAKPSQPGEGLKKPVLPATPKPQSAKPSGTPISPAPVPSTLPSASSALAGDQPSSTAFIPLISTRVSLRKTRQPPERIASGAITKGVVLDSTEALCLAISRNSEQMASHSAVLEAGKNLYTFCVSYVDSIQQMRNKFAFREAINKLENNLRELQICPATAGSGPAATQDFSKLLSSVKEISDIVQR
T3 sequence (P11274 whole entry, looked up, the tested form may be a part): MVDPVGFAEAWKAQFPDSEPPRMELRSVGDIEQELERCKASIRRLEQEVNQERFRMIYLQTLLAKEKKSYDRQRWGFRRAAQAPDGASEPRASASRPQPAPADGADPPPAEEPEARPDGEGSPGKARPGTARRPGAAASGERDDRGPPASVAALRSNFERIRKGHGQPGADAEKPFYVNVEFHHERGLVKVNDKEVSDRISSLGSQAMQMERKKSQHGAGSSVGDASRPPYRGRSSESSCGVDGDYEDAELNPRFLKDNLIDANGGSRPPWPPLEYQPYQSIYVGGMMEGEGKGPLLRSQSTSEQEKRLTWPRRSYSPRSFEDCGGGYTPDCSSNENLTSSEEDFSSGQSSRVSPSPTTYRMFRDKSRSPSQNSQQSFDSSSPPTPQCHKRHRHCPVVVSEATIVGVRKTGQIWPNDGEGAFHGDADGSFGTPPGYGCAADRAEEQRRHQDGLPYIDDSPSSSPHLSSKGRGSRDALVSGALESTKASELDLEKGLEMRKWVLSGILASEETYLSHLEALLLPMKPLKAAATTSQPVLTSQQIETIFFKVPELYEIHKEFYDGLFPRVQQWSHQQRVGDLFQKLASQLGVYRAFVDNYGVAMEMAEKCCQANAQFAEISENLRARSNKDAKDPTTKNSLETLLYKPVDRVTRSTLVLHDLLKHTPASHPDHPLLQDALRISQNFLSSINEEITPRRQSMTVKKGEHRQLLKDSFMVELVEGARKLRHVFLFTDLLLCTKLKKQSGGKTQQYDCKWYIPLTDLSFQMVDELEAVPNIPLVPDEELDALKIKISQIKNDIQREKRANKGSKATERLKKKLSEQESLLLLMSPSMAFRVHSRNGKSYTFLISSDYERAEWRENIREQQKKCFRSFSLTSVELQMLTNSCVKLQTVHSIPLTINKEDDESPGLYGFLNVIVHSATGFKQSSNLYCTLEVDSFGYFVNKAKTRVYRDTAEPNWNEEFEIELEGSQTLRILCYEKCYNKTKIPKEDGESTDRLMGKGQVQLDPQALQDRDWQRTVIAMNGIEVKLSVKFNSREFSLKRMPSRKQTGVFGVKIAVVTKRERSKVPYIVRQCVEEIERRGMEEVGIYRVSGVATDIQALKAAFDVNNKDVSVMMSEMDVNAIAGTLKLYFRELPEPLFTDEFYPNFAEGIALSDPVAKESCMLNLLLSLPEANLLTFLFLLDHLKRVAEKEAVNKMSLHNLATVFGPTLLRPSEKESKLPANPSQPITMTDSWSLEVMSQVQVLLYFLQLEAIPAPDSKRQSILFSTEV

[6] = molecular target: Crk-like protein (Homo sapiens) (UniProt P46109); experiment: Inhibition of CRKL phosphorylation at Tyr207 residue in human K562 cells at 100 nM incubated for 6 hrs followed by compound washout measured upto 96 hrs by Western blotting analysis; format: cell-based
Crk-like protein (Homo sapiens), sequence (P46109 whole entry, the tested form may be a part): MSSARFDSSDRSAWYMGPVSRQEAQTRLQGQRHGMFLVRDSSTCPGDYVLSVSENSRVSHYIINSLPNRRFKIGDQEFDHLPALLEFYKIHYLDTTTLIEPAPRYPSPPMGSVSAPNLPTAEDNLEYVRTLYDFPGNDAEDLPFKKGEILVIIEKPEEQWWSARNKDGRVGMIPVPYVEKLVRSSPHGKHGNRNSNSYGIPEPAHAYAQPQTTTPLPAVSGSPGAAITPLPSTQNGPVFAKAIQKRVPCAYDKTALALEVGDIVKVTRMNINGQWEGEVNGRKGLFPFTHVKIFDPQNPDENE

[7] = molecular target: T3, Bcr/Abl fusion protein (Homo sapiens); experiment: Inhibition of BCR-ABL phosphorylation at Tyr245 residue in human K562 cells at 0.3 to 100 nM incubated for 16 hrs by Western blotting analysis; format: cell-based; settings: dose 0.3-100 nM
[8] = molecular target: T2, Signal transducer and activator of transcription 5A (Homo sapiens); experiment: Inhibition of STAT5 phosphorylation at Tyr694 residue in human K562 cells at 100 nM incubated for 6 hrs followed by compound washout measured upto 96 hrs by Western blotting analysis; format: cell-based
[9] = molecular target: Crk-like protein (Homo sapiens) (UniProt P46109); experiment: Inhibition of CRKL phosphorylation at Tyr207 residue in human K562 cells at 0.3 to 100 nM incubated for 16 hrs by Western blotting analysis; format: cell-based; settings: dose 0.3-100 nM
[10] = molecular target: T1, Protein cereblon/Tyrosine-protein kinase ABL1/Breakpoint cluster region protein; experiment: Protac activity at CRBN/BCR-ABL in human K562 cells assessed as increase in BCR-ABL degradation at 100 nM incubated for 6 hrs followed by compound washout measured upto 96 hrs by Western blotting analysis; format: cell-based

T1 sequence (P00519 whole entry, looked up): as the sequence (P00519 whole entry, looked up, the tested form may be a part) above
T1 sequence (P11274 whole entry, looked up): as the sequence (P11274 whole entry, looked up, the tested form may be a part) above
T1 sequence (Q96SW2 whole entry, looked up): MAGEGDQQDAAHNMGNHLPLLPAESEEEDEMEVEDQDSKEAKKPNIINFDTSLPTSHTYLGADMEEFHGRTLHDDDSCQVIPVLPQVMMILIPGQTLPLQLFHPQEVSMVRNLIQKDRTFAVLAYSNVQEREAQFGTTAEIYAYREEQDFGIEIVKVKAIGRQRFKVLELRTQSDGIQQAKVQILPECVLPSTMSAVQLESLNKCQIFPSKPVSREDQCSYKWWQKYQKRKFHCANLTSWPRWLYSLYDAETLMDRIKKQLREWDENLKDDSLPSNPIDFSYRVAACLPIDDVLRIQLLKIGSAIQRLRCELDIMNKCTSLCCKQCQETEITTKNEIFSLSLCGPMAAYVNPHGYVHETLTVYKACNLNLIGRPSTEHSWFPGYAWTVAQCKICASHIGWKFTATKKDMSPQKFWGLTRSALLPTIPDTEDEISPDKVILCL

Compound | IC50 (K562) | Activity [1] | Activity [2] | Activity [3] | further results
O=C1CCC(N2C(=O)c3cccc(NCCCC(=O)N4CCN(c5ncc(C(=O)Nc6ccc(OC(F)(F)Cl)cc6)cc5-c5ccn[nH]5)CC4)c3C2=O)C(=O)N1 (stereo unspecified) | 130 nM | 9.05% |  |  | 
O=C1CCC(N2C(=O)c3cccc(NCCCCCC(=O)N4CCN(c5ncc(C(=O)Nc6ccc(OC(F)(F)Cl)cc6)cc5-c5ccn[nH]5)CC4)c3C2=O)C(=O)N1 (stereo unspecified) | 186 nM | 1.67% |  |  | 
O=C1CCC(N2Cc3c(SCCCN4CCN(c5ncc(C(=O)Nc6ccc(OC(F)(F)Cl)cc6)cc5-c5ccn[nH]5)CC4)cccc3C2=O)C(=O)N1 (stereo unspecified) | 137 nM |  | 48.4% | 40% | 
O=C1CCC(N2Cc3c(SCCCCNC4CCN(c5ncc(C(=O)Nc6ccc(OC(F)(F)Cl)cc6)cc5-c5ccn[nH]5)CC4)cccc3C2=O)C(=O)N1 (stereo unspecified) | 322 nM |  | 5.76% | 41.6% | 
O=C1CCC(N2Cc3c(SCCCCCNc4ncc(C(=O)Nc5ccc(OC(F)(F)Cl)cc5)cc4-c4ccn[nH]4)cccc3C2=O)C(=O)N1 (stereo unspecified) | 558 nM |  | 6.85% | 29.6% | 
O=C1CCC(N2Cc3c(OCCCC(=O)N4CCN(c5ncc(C(=O)Nc6ccc(OC(F)(F)Cl)cc6)cc5-c5ccn[nH]5)CC4)cccc3C2=O)C(=O)N1 (stereo unspecified) | 2120 nM | -12.3% |  |  | 
O=C1CCC(N2Cc3c(SCCOCC(=O)N4CCN(c5ncc(C(=O)Nc6ccc(OC(F)(F)Cl)cc6)cc5-c5ccn[nH]5)CC4)cccc3C2=O)C(=O)N1 (stereo unspecified) | 154 nM | 10.2% |  |  | 
O=C1CCC(N2C(=O)c3cccc(NCCOCCOCCC(=O)N4CCN(c5ncc(C(=O)Nc6ccc(OC(F)(F)Cl)cc6)cc5-c5ccn[nH]5)CC4)c3C2=O)C(=O)N1 (stereo unspecified) | 1100 nM | -1.5% |  |  | 
O=C1CCC(N2Cc3c(SCCCCCNC4CCN(c5ncc(C(=O)Nc6ccc(OC(F)(F)Cl)cc6)cc5-c5ccn[nH]5)CC4)cccc3C2=O)C(=O)N1 (stereo unspecified) | 978 nM |  | -3.96% | 29.7% | 
O=C1CCC(N2Cc3c(SCCCCCN4CCN(C5CCN(c6ncc(C(=O)Nc7ccc(OC(F)(F)Cl)cc7)cc6-c6ccn[nH]6)CC5)CC4)cccc3C2=O)C(=O)N1 (stereo unspecified) | 23.1 nM |  | 24.3% | 37.1% | 
Nc1cccc2c1CN(C1CCC(=O)NC1=O)C2=O (stereo unspecified) [LENALIDOMIDE] | > 10000 nM |  |  |  | 
O=C1CCC(N2Cc3c(SCCCCCCN4CCN(c5ncc(C(=O)Nc6ccc(OC(F)(F)Cl)cc6)cc5-c5ccn[nH]5)CC4)cccc3C2=O)C(=O)N1 (stereo unspecified) | 292 nM |  | 24.6% | 40.8% | 
O=C1CCC(N2Cc3c(SCCCCCCNc4ncc(C(=O)Nc5ccc(OC(F)(F)Cl)cc5)cc4-c4ccn[nH]4)cccc3C2=O)C(=O)N1 (stereo unspecified) | 1960 nM |  | -5.46% | -8.74% | 
O=C1CCC(N2C(=O)c3cccc(C#CCCCC(=O)N4CCN(c5ncc(C(=O)Nc6ccc(OC(F)(F)Cl)cc6)cc5-c5ccn[nH]5)CC4)c3C2=O)C(=O)N1 (stereo unspecified) | 278 nM | 9.65% |  |  | 
O=C1CCC(N2Cc3c(SCCCN4CCN(C5CCN(c6ncc(C(=O)Nc7ccc(OC(F)(F)Cl)cc7)cc6-c6ccn[nH]6)CC5)CC4)cccc3C2=O)C(=O)N1 (stereo unspecified) | 48.5 nM |  | 55.5% | 49.6% | 
O=C1CCC(N2Cc3c(NCCCC(=O)N4CCN(c5ncc(C(=O)Nc6ccc(OC(F)(F)Cl)cc6)cc5-c5ccn[nH]5)CC4)cccc3C2=O)C(=O)N1 (stereo unspecified) | 666 nM | -2.33% |  |  | 
O=C1CCC(N2Cc3c(SCCCCCCNC4CCN(c5ncc(C(=O)Nc6ccc(OC(F)(F)Cl)cc6)cc5-c5ccn[nH]5)CC4)cccc3C2=O)C(=O)N1 (stereo unspecified) | 228 nM |  | 29.4% | 70.9% | 
O=C1CCC(N2C(=O)c3cccc(NCCOCCOCCOCCOCCC(=O)N4CCN(c5ncc(C(=O)Nc6ccc(OC(F)(F)Cl)cc6)cc5-c5ccn[nH]5)CC4)c3C2=O)C(=O)N1 (stereo unspecified) | 886 nM | 4.94% |  |  | 
CN1C(=O)CCC(N2Cc3c(SCCCCCCN4CCN(C5CCN(c6ncc(C(=O)Nc7ccc(OC(F)(F)Cl)cc7)cc6-c6ccn[nH]6)CC5)CC4)cccc3C2=O)C1=O (stereo unspecified) |  |  |  |  | Activity [4]: Active; inhibition [5]: inactive; inhibition [6]: inactive; Activity [7]: Active; inhibition [8]: inactive; Activity [9]: Active; Activity [10]: inactive
O=C1CCC(N2Cc3c(C#CCCCCCCN4CCN(C5CCN(c6ncc(C(=O)Nc7ccc(OC(F)(F)Cl)cc7)cc6-c6ccn[nH]6)CC5)CC4)cccc3C2=O)C(=O)N1 (stereo unspecified) | 124 nM |  | 38.4% | 29.9% | 
O=C1CCC(N2C(=O)c3cccc(NCC(=O)N4CCN(c5ncc(C(=O)Nc6ccc(OC(F)(F)Cl)cc6)cc5-c5ccn[nH]5)CC4)c3C2=O)C(=O)N1 (stereo unspecified) | 572 nM | 1.82% |  |  | 
O=C1CCC(N2C(=O)c3cccc(SCCCC(=O)N4CCN(c5ncc(C(=O)Nc6ccc(OC(F)(F)Cl)cc6)cc5-c5ccn[nH]5)CC4)c3C2=O)C(=O)N1 (stereo unspecified) | 528 nM | 9.57% |  |  | 

Now from value to compound, other results behind:

IC50 (K562) | Activity [1] | Activity [2] | Activity [3] | Compound | further results
66 nM |  | 28.8% | 67.9% | O=C1CCC(N2Cc3c(OCCCCCCN4CCN(C5CCN(c6ncc(C(=O)Nc7ccc(OC(F)(F)Cl)cc7)cc6-c6ccn[nH]6)CC5)CC4)cccc3C2=O)C(=O)N1 (stereo unspecified) | 
30.3 nM |  | 40.8% | 87.8% | O=C1CCC(N2Cc3c(SCCCCN4CCN(c5ncc(C(=O)Nc6ccc(OC(F)(F)Cl)cc6)cc5-c5ccn[nH]5)CC4)cccc3C2=O)C(=O)N1 (stereo unspecified) | 
172 nM | 1.94% |  |  | O=C1CCC(N2C(=O)c3cccc(NCCCCC(=O)N4CCN(c5ncc(C(=O)Nc6ccc(OC(F)(F)Cl)cc6)cc5-c5ccn[nH]5)CC4)c3C2=O)C(=O)N1 (stereo unspecified) | 
40.9 nM |  | 32.8% | 89.1% | O=C1CCC(N2Cc3c(C#CCCCCN4CCN(c5ncc(C(=O)Nc6ccc(OC(F)(F)Cl)cc6)cc5-c5ccn[nH]5)CC4)cccc3C2=O)C(=O)N1 (stereo unspecified) | 
47 nM |  | 21.9% | 64.4% | O=C1CCC(N2Cc3c(SCCCCCCCN4CCN(C5CCN(c6ncc(C(=O)Nc7ccc(OC(F)(F)Cl)cc7)cc6-c6ccn[nH]6)CC5)CC4)cccc3C2=O)C(=O)N1 (stereo unspecified) | 
106 nM | 35.1% |  |  | O=C1CCC(N2Cc3c(SCCCC(=O)N4CCN(c5ncc(C(=O)Nc6ccc(OC(F)(F)Cl)cc6)cc5-c5ccn[nH]5)CC4)cccc3C2=O)C(=O)N1 (stereo unspecified) | 
> 10000 nM |  |  |  | Nc1cccc2c1C(=O)N(C1CCC(=O)NC1=O)C2=O (stereo unspecified) [POMALIDOMIDE] | 
170 nM |  | 38.2% | 70.9% | O=C1CCC(N2C(=O)c3cccc(SCCCCN4CCN(C5CCN(c6ncc(C(=O)Nc7ccc(OC(F)(F)Cl)cc7)cc6-c6ccn[nH]6)CC5)CC4)c3C2=O)C(=O)N1 (stereo unspecified) | 
928 nM |  | -3.56% | -9.23% | O=C1CCC(N2Cc3c(SCCCCNc4ncc(C(=O)Nc5ccc(OC(F)(F)Cl)cc5)cc4-c4ccn[nH]4)cccc3C2=O)C(=O)N1 (stereo unspecified) | 
67.2 nM |  | 30.6% | 89.2% | O=C1CCC(N2Cc3c(OCCCCN4CCN(c5ncc(C(=O)Nc6ccc(OC(F)(F)Cl)cc6)cc5-c5ccn[nH]5)CC4)cccc3C2=O)C(=O)N1 (stereo unspecified) | 
380 nM | 1% |  |  | O=C1CCC(N2C(=O)c3cccc(NCCCCCCC(=O)N4CCN(c5ncc(C(=O)Nc6ccc(OC(F)(F)Cl)cc6)cc5-c5ccn[nH]5)CC4)c3C2=O)C(=O)N1 (stereo unspecified) | 
1120 nM | -1.35% |  |  | O=C1CCC(N2C(=O)c3cccc(OCCCC(=O)N4CCN(c5ncc(C(=O)Nc6ccc(OC(F)(F)Cl)cc6)cc5-c5ccn[nH]5)CC4)c3C2=O)C(=O)N1 (stereo unspecified) | 
34.7 nM |  | 38.9% | 86.1% | O=C1CCC(N2Cc3c(SCCCCN4CCN(C5CCN(c6ncc(C(=O)Nc7ccc(OC(F)(F)Cl)cc7)cc6-c6ccn[nH]6)CC5)CC4)cccc3C2=O)C(=O)N1 (stereo unspecified) | 
